For orientation: IC50 means the concentration that gives 50% inhibition.

The source of these data is patent US7220780B2, “Naaladase inhibitors for treating retinal disorders and glaucoma” (Guilford Pharmaceuticals Inc., priority 2000, dated 2007).

In assay [1] the test system is male Brown Norway rats. The assay can be described thus: Experimental rat glaucoma (IOP elevation by hypertonic saline), optic nerve fiber counting. Conditions: 8 week group, 10 mg/kg daily i.p. In kind it is in vivo. On the procedure:
(§1) All experiments complied with the Association for Research in Vision and Ophthalmology Statement for the Use of Animals in Ophthalmic and Vision Research. 82 male Brown Norway rats (Rattus norvegicus), each weighing approximately 250 gm, were treated using procedures approved by the Animal Care Committee of the Johns Hopkins University School of Medicine. The rats were housed with a 12 hour light/12 hour dark cycle and fed ad libitum .
EXPERIMENTAL GLAUCOMA: Unilateral elevation of IOP was produced in 56 rats by microinjection of hypertonic saline into episcleral veins, following procedures described in Morrison, J. et al., IOVS (March 1998) 39:526-531. Beginning on the day of IOP elevation, the rats were treated daily with intraperitoneal injections of either a vehicle (23 rats with 50 mM HEPES-buffered saline) or a NAALADase inhibitor (11 rats with 10 mg/kg of 2-[[(2,3,4,5,6-pentafluorobenzyl)hydroxyphosphinyl]-methyl]pentanedioic acid (“Compound A”) and 22 rats with 10 mg/kg of 2-(3-sulfanylpropyl)pentanedioic acid (“Compound B”)). 11 saline treated rats, 11 Compound A treated rats and 11 Compound B treated rats were sacrificed at 8 weeks, and the remaining rats at 12 weeks, after initial IOP elevation.
(§2) OPTIC NERVE COUNTING: The rats were sacrificed by exsanguination under deep pentobarbital anesthesia. They were perfused through the heart with 2% paraformaldehyde/2% glutaraldehyde in 0.1 M phosphate buffer, pH 7.2, and the eyes with attached optic nerves were removed. A cross-section of the optic nerve from both experimental (glaucoma or transection) and control eyes was removed 1.5 mm posterior to the globe, 1 mm in thickness, and post-fixed in 2% osmium tetroxide in buffer. These were processed into epoxy resin, sectioned at 1 micron and stained with toluidine blue.
(§3) The area of the optic nerve cross-section was measured by outlining its outer border at 10×magnification on an image analysis system (Universal Imaging Corp., Westchester, Pa.) with Synsys digital camera and Metamorph software. Three area measurements were taken and the mean value was determined. To measure the density and fiber diameter distributions, images were captured with a 100× phase contrast objective from 10 different areas of each nerve. These were edited to eliminate non-neural objects and the size of each axon internal to the myelin sheath (its minimum diameter) and the density of axons/square mm were calculated for each image and nerve. The mean density was multiplied by total nerve area to yield fiber number for each nerve. The total fiber number in glaucoma or transection nerves was compared to the normal, fellow eye of each rat to yield a percent loss value. The number of axons counted among the 10 images was an approximately 20% sample of the 80-90,000 axons in normal rat nerves. The person measuring axon number was masked to the protocol conducted on the nerves.

For assay [2], the system named is male Brown Norway rats. The assay can be described thus: Optic nerve transection in rats, optic nerve fiber counting. The assay is classed as in vivo, Rattus norvegicus. Conditions: for FIBER NUMBER ± SEM / PERCENT DIFFERENCE ± SEM: 10 mg/kg daily i.p.; for PERCENT DIFFERENCE ± SEM: transected vs normal eye. As for the experimental part: as §1
OPTIC NERVE TRANSECTION: The optic nerve was transected unilaterally in 26 rats under intraperitoneal pentobarbital anesthesia. The conjunctiva was opened with scissors and the optic nerve exposed by traction on extraocular muscles. The transection was performed with microscissors 5 mm posterior to the globe, with specific attention to avoidance of injury to major ocular blood vessels. Immediately after transection, the retina was examined ophthalmoscopically to assure that the retinal arterial blood supply was not disrupted. The conjunctiva was closed with absorbable suture and the eye dressed with antibiotic ointment. Beginning on the day of transection, the rats were treated daily with intraperitoneal injections of either a vehicle (9 rats with 50 mM HEPES-buffered saline) or a NAALADase inhibitor (8 rats with 10 mg/kg of Compound A and 9 rats with 10 mg/kg of Compound B). 5 saline treated rats, 3 Compound A treated rats and 4 Compound B treated rats were sacrificed at 2 weeks, and the remaining rats at 4 weeks, after transection.
as §2, §3

In a further assay the target is NAALADase (Rattus norvegicus, UniProt P70627). The assay can be described thus: In vitro inhibition of NAALADase activity. To be noted: for Ki: read-out: K1. In kind it is biochemical.
The mark [3] stands for this setting: 2 weeks survival after transection.
Setting [4] is: 4 weeks survival after transection.

Sequence of NAALADase (P70627 whole entry): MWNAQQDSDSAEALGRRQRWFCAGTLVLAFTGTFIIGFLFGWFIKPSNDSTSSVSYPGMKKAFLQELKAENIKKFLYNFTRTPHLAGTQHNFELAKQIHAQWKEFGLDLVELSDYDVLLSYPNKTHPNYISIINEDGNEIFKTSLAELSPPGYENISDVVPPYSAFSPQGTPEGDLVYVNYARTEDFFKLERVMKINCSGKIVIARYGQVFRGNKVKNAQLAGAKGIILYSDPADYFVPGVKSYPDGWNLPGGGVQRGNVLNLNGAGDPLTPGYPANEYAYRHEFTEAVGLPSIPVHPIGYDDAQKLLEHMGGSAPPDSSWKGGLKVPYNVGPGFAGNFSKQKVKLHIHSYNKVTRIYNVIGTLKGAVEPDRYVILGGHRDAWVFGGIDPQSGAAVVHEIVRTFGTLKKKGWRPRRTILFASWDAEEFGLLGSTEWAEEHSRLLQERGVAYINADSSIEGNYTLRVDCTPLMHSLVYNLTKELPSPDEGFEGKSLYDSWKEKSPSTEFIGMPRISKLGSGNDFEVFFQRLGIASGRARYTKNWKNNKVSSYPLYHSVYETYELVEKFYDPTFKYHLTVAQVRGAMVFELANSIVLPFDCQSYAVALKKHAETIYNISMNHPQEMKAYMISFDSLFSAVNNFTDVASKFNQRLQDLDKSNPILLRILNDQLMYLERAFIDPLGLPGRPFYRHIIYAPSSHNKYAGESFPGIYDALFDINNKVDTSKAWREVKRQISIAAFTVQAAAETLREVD

Take `O=C(O)CCC(CP(=O)(O)Cc1c(F)c(F)c(F)c(F)c1F)C(=O)O` (stereo not drawn) [Compound A, 2-[[(2,3,4,5,6-pentafluorobenzyl)hydroxyphosphinyl]-methyl]pentanedioic acid]: the “FIBER NUMBER ± SEM” value is 79156 ± 2436 in the assay with male Brown Norway rats [1], 26,426 ± 13,293 in the assay on male Brown Norway rats [2] (setting [3]) and 13,599 ± 3,519 in the assay on male Brown Norway rats [2] (setting [4]). In addition, the “PERCENT DIFFERENCE ± SEM” value with male Brown Norway rats [1] (fiber number glaucoma vs normal eye, positive = fewer fibers in glaucoma eye) is given as −1.82 ± 2.92%; with male Brown Norway rats [2] (setting [3]) it was 65.3 ± 17.8%; in the assay on male Brown Norway rats [2] (setting [4]), 82.4 ± 4.0%. For the same molecule, the “IOP INTEGRAL DIFFERENCE ± SEM” value in the assay with male Brown Norway rats [1] (glaucoma eye vs normal eye) stood at 85 ± 37.5 mm Hg—days. The “remaining axons relative to the saline-treated rats” value with male Brown Norway rats [2] (2 weeks after transection) came out at 3 times.
Take `O=C(O)c1cc(C(=O)O)cc(C(=O)NO)c1` [5-[(hydroxyamino)-carbonyl]-1,3-benzenedicarboxylic acid]: the Ki on NAALADase came to 1 µM.
As for `O=C(O)c1ccc(S(=O)(=O)c2cc(C(=O)O)ccc2C(=O)O)cc1` [2-[(4-carboxyphenyl)sulfonyl]-1,4-benzenedicarboxylic acid], the Ki at NAALADase is 2.37 µM.
On to “3-(2-Carboxy-4-hydroxycarbamoyl-butyl)-benzoic acid”, for which the IC50 against NAALADase is 47.8 nM.
For `O=C(O)CNc1cc(C(=O)O)cc(C(=O)O)c1` [5-[(carboxymethyl)amino]-1,3-benzenedicarboxylic acid], the Ki on NAALADase came out at 100 µM.
On to `O=C(O)c1ccc(CCS)c(C(=O)O)c1` [4-(2-mercaptoethyl)-1,3-benzenedicarboxylic acid], for which the Ki at NAALADase was 0.116 µM.
On the same count and under the same terms, as for `O=C(O)c1ccc(C(=O)c2ccc(Oc3ccc(C(=O)O)c(C(=O)O)c3)cc2)c(C(=O)O)c1` [4-[4-(2,4-dicarboxybenzoyl)phenoxy]-1,2-benzenedicarboxylic acid], the figure is 1.17 µM; as for `O=C(O)c1ccc(OCCCSSCCCOc2ccc(C(=O)O)cc2C(=O)O)c(C(=O)O)c1` [4-[3-[[3-(2,4-dicarboxyphenoxy)-propyl]-dithio]propoxy]-1,3-benzenedicarboxylic acid], 3.75 µM; as for `O=C(O)c1cc(CS)cc(C(=O)O)c1` [5-mercaptomethyl-1,3-benzenedicarboxylic acid], 6.5 µM.
Same read-out and setting: under `O=C(O)c1cc(C(=O)O)cc(P(=O)(O)O)c1` [5-phosphono-1,3-benzenedicarboxylic acid] stands 14 µM.
The same measure, in the same setting: as for `O=C(O)c1ccc(C(=O)O)c(S(=O)(=O)c2cc(C(=O)O)ccc2C(=O)O)c1` [2-[(2,5-dicarboxyphenyl)sulfonyl]-1,4-benzenedicarboxylic acid], the figure is 1.87 µM; as for `O=C(Cc1cc(C(=O)O)cc(C(=O)O)c1)NO` [5-[2-(hydroxyamino)-2-oxoethyl]-1,3-benzenedicarboxylic acid], 12 µM; as for `O=C(O)c1cc(CNCc2ccco2)cc(C(=O)O)c1` [5-[[(2-furanylmethyl)amino]methyl]-1,3-benzenedicarboxylic acid], 50 µM.
With `O=C(O)c1ccc(C(=O)O)c(Sc2ccccc2C(=O)O)c1` [2-[(2-carboxyphenyl)thio]-1,4-benzenedicarboxylic acid], at NAALADase, the Ki was 0.572 µM.
Still for that read-out and setting: under `O=C(O)Cc1cc(C(=O)O)ccc1C(=O)O` [2-carboxymethyl-1,4-benzenedicarboxylic acid] stands 9 µM; under `O=C(O)c1cc(CP(=O)(O)O)cc(C(=O)O)c1` [5-phosphonomethyl-1,3-benzenedicarboxylic acid], 3.1 µM.
Same read-out and setting: as for `O=C(O)c1cc(OCCS)cc(C(=O)O)c1` [5-(2-mercaptoethoxy)-1,3-benzenedicarboxylic acid], the figure is 14.5 µM; as for `O=C(O)c1cc(CCS)cc(C(=O)O)c1` [5-(2-mercaptoethyl)-1,3-benzenedicarboxylic acid], 5.1 µM.
Consider `O=C(O)c1cc(OCCCS)cc(C(=O)O)c1` [5-(3-mercaptopropoxy)-1,3-benzenedicarboxylic acid], for which the Ki on NAALADase came out at 3.3 µM.
In the case of `O=C(O)c1ccc(Sc2ccccc2C(=O)O)c(C(=O)O)c1` [4-[(2-carboxyphenyl)thio]-1,3-benzenedicarboxylic acid], at NAALADase, the Ki turned out to be 3.98 µM.
